Assay results taken from PubChem BioAssay AID1259407 (Chemical Carcinogenesis Research Information System (CCRIS), 2018).
Calls of active or inactive are those of the source. The rule behind the calls is not given here.

System: CCRIS mutagenicity, Ames/micronucleus/aberration tests
Assay: CCRIS mutagenicity studies
[1] = Test System: AMES SALMONELLA TYPHIMURIUM, Strain/Indicator: TA98, Metabolic Activation: NONE, Method: PREINCUBATION
[2] = Test System: AMES SALMONELLA TYPHIMURIUM, Strain/Indicator: TA100, Metabolic Activation: NONE, Method: PREINCUBATION
[3] = Test System: AMES SALMONELLA TYPHIMURIUM, Strain/Indicator: TA98, Metabolic Activation: NONE, Method: STANDARD PLATE
[4] = Test System: AMES SALMONELLA TYPHIMURIUM, Strain/Indicator: TA100, Metabolic Activation: NONE, Method: STANDARD PLATE

Measured: mutagenic call

C=CC(=C)C
active: End Point: IN VIVO MICRONUCLEUS, Test System: PERIPHERAL BLOOD LYMPHOCYTES, Species: MOUSE, Strain/Sex: B6C3F1/MALE, Route: INHALATION active; positive
inactive: End Point: IN VIVO CHROMOSOMAL ABERRATIONS, Test System: BONE MARROW CELLS, Species: MOUSE, Strain/Sex: B6C3F1/MALE, Route: INHALATION inactive; negative | Test System: AMES SALMONELLA TYPHIMURIUM, Strain/Indicator: TA98, Metabolic Activation: HAMSTER, LIVER, S-9, AROCLOR 1254 (10%), Method: PREINCUBATION inactive; negative | [1] inactive; negative | Test System: AMES SALMONELLA TYPHIMURIUM, Strain/Indicator: TA98, Metabolic Activation: RAT, LIVER, S-9, AROCLOR 1254 (10%), Method: PREINCUBATION inactive; negative | Test System: AMES SALMONELLA TYPHIMURIUM, Strain/Indicator: TA98, Metabolic Activation: S-9, Method: PREINCUBATION inactive; negative | Test System: AMES SALMONELLA TYPHIMURIUM, Strain/Indicator: TA100, Metabolic Activation: HAMSTER, LIVER, S-9, AROCLOR 1254 (10%), Method: PREINCUBATION inactive; negative | [2] inactive; negative | Test System: AMES SALMONELLA TYPHIMURIUM, Strain/Indicator: TA100, Metabolic Activation: RAT, LIVER, S-9, AROCLOR 1254 (10%), Method: PREINCUBATION inactive; negative | Test System: AMES SALMONELLA TYPHIMURIUM, Strain/Indicator: TA100, Metabolic Activation: S-9, Method: PREINCUBATION inactive; negative | Test System: AMES SALMONELLA TYPHIMURIUM, Strain/Indicator: TA1535, Metabolic Activation: HAMSTER, LIVER, S-9, AROCLOR 1254 (10%), Method: PREINCUBATION inactive; negative | Test System: AMES SALMONELLA TYPHIMURIUM, Strain/Indicator: TA1535, Metabolic Activation: NONE, Method: PREINCUBATION inactive; negative | Test System: AMES SALMONELLA TYPHIMURIUM, Strain/Indicator: TA1535, Metabolic Activation: RAT, LIVER, S-9, AROCLOR 1254 (10%), Method: PREINCUBATION inactive; negative | Test System: AMES SALMONELLA TYPHIMURIUM, Strain/Indicator: TA1535, Metabolic Activation: S-9, Method: PREINCUBATION inactive; negative | Test System: AMES SALMONELLA TYPHIMURIUM, Strain/Indicator: TA1537, Metabolic Activation: HAMSTER, LIVER, S-9, AROCLOR 1254 (10%), Method: PREINCUBATION inactive; negative | Test System: AMES SALMONELLA TYPHIMURIUM, Strain/Indicator: TA1537, Metabolic Activation: NONE, Method: PREINCUBATION inactive; negative | Test System: AMES SALMONELLA TYPHIMURIUM, Strain/Indicator: TA1537, Metabolic Activation: RAT, LIVER, S-9, AROCLOR 1254 (10%), Method: PREINCUBATION inactive; negative | Test System: E.COLI, Strain/Indicator: WP2UVRA/PKM101, Metabolic Activation: NONE, Method: PREINCUBATION inactive; negative | Test System: E.COLI, Strain/Indicator: WP2UVRA/PKM101, Metabolic Activation: S-9, Method: PREINCUBATION inactive; negative

CCCCC(CC)COP(=O)(OCC(CC)CCCC)OCC(CC)CCCC (stereo not drawn)
inactive: End Point: IN VITRO CHROMOSOMAL ABERRATIONS, Test System: CHO CELLS, Metabolic Activation: NONE inactive; negative | End Point: IN VITRO CHROMOSOMAL ABERRATIONS, Test System: CHO CELLS, Metabolic Activation: RAT, LIVER, S-9, AROCLOR 1254 inactive; negative | Test System: AMES SALMONELLA TYPHIMURIUM, Strain/Indicator: TA98, Metabolic Activation: HAMSTER, LIVER, S-9, AROCLOR 1254, Method: STANDARD PLATE inactive; negative | [3] inactive; negative | Test System: AMES SALMONELLA TYPHIMURIUM, Strain/Indicator: TA98, Metabolic Activation: RAT, LIVER, S-9, AROCLOR 1254, Method: STANDARD PLATE inactive; negative | Test System: AMES SALMONELLA TYPHIMURIUM, Strain/Indicator: TA100, Metabolic Activation: HAMSTER, LIVER, S-9, AROCLOR 1254, Method: STANDARD PLATE inactive; negative | [4] inactive; negative | Test System: AMES SALMONELLA TYPHIMURIUM, Strain/Indicator: TA100, Metabolic Activation: RAT, LIVER, S-9, AROCLOR 1254, Method: STANDARD PLATE inactive; negative | Test System: AMES SALMONELLA TYPHIMURIUM, Strain/Indicator: TA1535, Metabolic Activation: HAMSTER, LIVER, S-9, AROCLOR 1254, Method: STANDARD PLATE inactive; negative | Test System: AMES SALMONELLA TYPHIMURIUM, Strain/Indicator: TA1535, Metabolic Activation: NONE, Method: STANDARD PLATE inactive; negative | Test System: AMES SALMONELLA TYPHIMURIUM, Strain/Indicator: TA1535, Metabolic Activation: RAT, LIVER, S-9, AROCLOR 1254, Method: STANDARD PLATE inactive; negative | Test System: AMES SALMONELLA TYPHIMURIUM, Strain/Indicator: TA1537, Metabolic Activation: HAMSTER, LIVER, S-9, AROCLOR 1254, Method: STANDARD PLATE inactive; negative | Test System: AMES SALMONELLA TYPHIMURIUM, Strain/Indicator: TA1537, Metabolic Activation: NONE, Method: STANDARD PLATE inactive; negative | Test System: AMES SALMONELLA TYPHIMURIUM, Strain/Indicator: TA1537, Metabolic Activation: RAT, LIVER, S-9, AROCLOR 1254, Method: STANDARD PLATE inactive; negative

O=C([O-])c1cccnc1Nc1cccc(C(F)(F)F)c1.O=C([O-])c1cccnc1Nc1cccc(C(F)(F)F)c1.[Cu+2]
inactive: Test System: AMES SALMONELLA TYPHIMURIUM, Strain/Indicator: TA97, Metabolic Activation: MOUSE, LIVER, S-9, Method: STANDARD PLATE inactive; negative | Test System: AMES SALMONELLA TYPHIMURIUM, Strain/Indicator: TA97, Metabolic Activation: NONE, Method: STANDARD PLATE inactive; negative | Test System: AMES SALMONELLA TYPHIMURIUM, Strain/Indicator: TA97, Metabolic Activation: RAT LIVER S-9, DELOR 103, Method: STANDARD PLATE inactive; negative | Test System: AMES SALMONELLA TYPHIMURIUM, Strain/Indicator: TA98, Metabolic Activation: MOUSE, LIVER, S-9, Method: STANDARD PLATE inactive; negative | [3] inactive; negative | Test System: AMES SALMONELLA TYPHIMURIUM, Strain/Indicator: TA98, Metabolic Activation: RAT LIVER S-9, DELOR 103, Method: STANDARD PLATE inactive; negative | Test System: AMES SALMONELLA TYPHIMURIUM, Strain/Indicator: TA100, Metabolic Activation: MOUSE, LIVER, S-9, Method: STANDARD PLATE inactive; negative | [4] inactive; negative | Test System: AMES SALMONELLA TYPHIMURIUM, Strain/Indicator: TA100, Metabolic Activation: RAT LIVER S-9, DELOR 103, Method: STANDARD PLATE inactive; negative | Test System: AMES SALMONELLA TYPHIMURIUM, Strain/Indicator: TA102, Metabolic Activation: MOUSE, LIVER, S-9, Method: STANDARD PLATE inactive; negative | Test System: AMES SALMONELLA TYPHIMURIUM, Strain/Indicator: TA102, Metabolic Activation: NONE, Method: STANDARD PLATE inactive; negative | Test System: AMES SALMONELLA TYPHIMURIUM, Strain/Indicator: TA102, Metabolic Activation: RAT LIVER S-9, DELOR 103, Method: STANDARD PLATE inactive; negative

CNC(=O)NC
inactive: [1] inactive; negative | Test System: AMES SALMONELLA TYPHIMURIUM, Strain/Indicator: TA98, Metabolic Activation: RAT, LIVER, S-9, AROCLOR 1254 (5, 15 OR 30%), Method: PREINCUBATION inactive; negative | [2] inactive; negative | Test System: AMES SALMONELLA TYPHIMURIUM, Strain/Indicator: TA100, Metabolic Activation: RAT, LIVER, S-9, AROCLOR 1254 (5, 15 OR 30%), Method: PREINCUBATION inactive; negative | Test System: AMES SALMONELLA TYPHIMURIUM, Strain/Indicator: TA104, Metabolic Activation: NONE, Method: PREINCUBATION inactive; negative | Test System: AMES SALMONELLA TYPHIMURIUM, Strain/Indicator: TA104, Metabolic Activation: RAT, LIVER, S-9, AROCLOR 1254 (5, 15 OR 30%), Method: PREINCUBATION inactive; negative | Test System: MOUSE LYMPHOMA, Strain/Indicator: L5178Y (TK+/TK-), Metabolic Activation: NONE, Method: SUSPENSION/PLATE inactive; negative | Test System: MOUSE LYMPHOMA, Strain/Indicator: L5178Y (TK+/TK-), Metabolic Activation: RAT, LIVER, S-9, AROCLOR 1254, Method: SUSPENSION/PLATE inactive; negative
